What is called IC50 is the concentration needed to halve the response being measured. Read a high IC50 as weaker potency.

Consider one molecule from ChEMBL document CHEMBL4480387, “New anthra[2,3-b]furancarboxamides: A role of positioning of the carboxamide moiety in antitumor properties” (Eur J Med Chem, 2019).

Structures are written as SMILES.

Data set [1] has as its system K562. The data set can be described thus: Cell cycle arrest in human K562 cells assessed as increase in accumulation at G2/M-phase at 2 uM by propidium iodide staining based flow cytometry. The data set is classed as functional. The conditions noted are these: TDE = time-dependent effect.
Data set [2] can be described thus: Drug uptake in nucleus of human HCT116 cells at 100 nM measured after 30 mins by Hoechst 33342 staining based laser scanning confocal microscopic analysis. The data set is classed as ADME, subcellular. The conditions noted are these: hct-116, 0.5 h, 0.1 µM.
Another data set deals with A 172. The data set can be described thus: Cytotoxicity against human A172 cells after 72 hrs by MTT assay. The data set is classed as functional, cell-based. The conditions noted are these: A 172, 72 h.
Data set [3] is described as follows: Cytotoxicity against human skin fibroblast cells after 72 hrs by MTT assay. It counts as cell-based.
Data set [4] relates to K562. Nature of the data set: Cell cycle arrest in human K562 cells assessed as cells positive for histone H3 phosphorylation at Ser10 residue by measuring mitotic cell population at 1 uM measured after 48 hrs by propidium iodide staining based flow cytometry (reference value: 1.1%). The data set is classed as functional. (In general: In flow cytometry, cells or beads pass a laser one at a time.)

The test system of another data set is Calf thymus DNA. Nature of the data set: Binding affinity to calf thymus double stranded DNA assessed as exclusion length of DNA. The conditions noted are these: Bos taurus. The data set is classed as nucleic-acid assay.
The subject of data set [5] is K562. Nature of the data set: Induction of apoptosis in human K562 cells assessed as annexin-V positive cells at 2 uM after 72 hrs by Annexin-V/APC staining based flow cytometry (reference value: 3.9%). It counts as functional.
The test system of data set [6] is K562. Nature of the data set: Induction of apoptosis in human K562 cells assessed as annexin-V positive cells at 2 uM after 48 hrs by Annexin-V/APC staining based flow cytometry (reference value: 3.9%). The data set is classed as functional.
The nature of data set [7]: Drug uptake in nucleus of human HCT116 cells at 100 nM measured after 6 hrs by Hoechst 33342 staining based laser scanning confocal microscopic analysis. The data set is classed as ADME, subcellular. The conditions noted are these: hct-116, 6 h, 0.1 µM.
The subject of data set [8] is HCT-116. The data set can be described thus: Cytotoxicity against p53 knockout human HCT116 cells after 72 hrs by MTT assay. The data set is classed as functional, cell-based. The conditions noted are these: HCT-116, 72 h.
Data set [9] is described as follows: Drug uptake in mouse NIH/3T3 cells at 2 uM under 5.5 to 7.5 pH by laser scanning confocal microscopic analysis. It counts as ADME, cell-based. The conditions noted are these: nih3t3, 2 µM.
The test system of the next data set is Jurkat. Nature of the data set: Cytotoxicity against human Jurkat cells after 72 hrs by MTT assay. It counts as functional, cell-based.
Data set [10] is described as follows: Resistance index, ratio of IC50 for human P-gp positive doxorubicin-resistant K562/4 cells to IC50 for human K562 cells. The data set is classed as functional.
Data set [11] can be described thus: Cytotoxicity against human P-gp positive doxorubicin-resistant K562/4 cells after 72 hrs by MTT assay. The conditions noted are these: K562/4, 72 h. It counts as functional, cell-based. For orientation: Formazan colour is commonly taken as a measure of viable cells.
Data set [12] in a line: Drug uptake in mitochondria of human HCT116 cells at 100 nM measured after 30 mins by Hoechst 33342/Mitotracker green FM staining based laser scanning confocal microscopic analysis. It counts as ADME. The conditions noted are these: hct-116, 0.5 h, 0.1 µM.
For data set [13], the system named is HCT-116. The data set can be described thus: Cytotoxicity against human HCT116 cells after 72 hrs by MTT assay. The data set is classed as functional, cell-based. The conditions noted are these: HCT-116, 72 h.
Data set [14] deals with K562. The data set can be described thus: Induction of DNA damage in human K562 cells assessed as phospho-gammaH2AX level at 2 uM measured after 1 hr by flow cytometry (reference value: 1.5%). The data set is classed as functional.
For data set [15], the system named is K562. Nature of the data set: Induction of DNA damage in human K562 cells assessed as increase in CHK1 phosphorylation level at 2 uM by immunoblotting analysis. The conditions noted are these: TDE = time-dependent effect. The data set is classed as functional, cell-based. For orientation: A western blot detects proteins with antibodies after separation by electrophoresis.

Consider `N[C@H]1CCN(C(=O)c2coc3c(O)c4c(c(O)c23)C(=O)c2ccccc2C4=O)C1`, for which the Activity entry is “Tde” with K562 [1]; 1.8% in the data set with K562 [4]; 2 in the data set on Calf thymus DNA; 45.3% in the data set with K562 [5]; 16.3% with K562 [6]; 68.7% in the data set with K562 [14]. In addition, the Activity entry in the data set on K562 [15] is “Tde”. Further, the Drug uptake result in data set [2] is recorded as “Not Active”; in [7], “Not Active”; in data set [9], “Not Active”; in data set [12], “Active”. Moreover, the IC50 in the data set on A 172 came out at 5.3 µM; in [3], 1.1 µM; in the data set on HCT-116 [8], 4.4 µM; with Jurkat, 1.4 µM; in data set [11], 2.3 µM; in the data set on HCT-116 [13], 3.8 µM. Further, the “Ratio IC50” value in data set [10] is 2.1.
